Laboratory results taken from ChEMBL document CHEMBL5154709, “Tetrazole derivatives bearing benzodiazepine moiety-synthesis and action mode against virulence of Candida albicans” (Eur J Med Chem, 2022).
Converted amounts (≈) assume the structure as drawn. The source made the active and inactive calls. The rule behind the calls is not given here.

Tests used:
[1] = Toxicity in Galleria mellonella larvae assessed as melanization of larvae at 16 ug/ml measured every 24 hrs for 4 to 5 days relative to control; details: at 16 µg/mL, time 4-5 day
[2] = test system: Candida albicans; test: Antifungal activity against Candida albicans SC5314 assessed as inhibition of fungal growth at 0.5 ug/ml incubated for 48 hrs by M27-A3 based microdilution method relative to control; format: functional
[3] = test system: Candida albicans; test: Antifungal against Candida albicans SC5314 biofilm assessed as amorphous layer of cell surface barrier at 16 ug/ml incubated for 18 hrs by Rho123 and Hoechst 33342 double staining based confocal laser scanning microscopic analysis; format: functional, organism-based; details: dose 16.0 µg/ml
[4] = test system: Candida albicans; test: Antifungal activity against Candida albicans SC5314 assessed as inhibition of fungal growth at 8 ug/ml incubated for 48 hrs by M27-A3 based microdilution method relative to control; format: functional
[5] = test system: Candida albicans; test: Antifungal activity against Candida albicans SC5314 assessed as inhibition of fungal growth at 0.125 ug/ml incubated for 18 hrs by M27-A3 based microdilution method relative to control; format: functional
[6] = test system: Candida albicans; test: Induction of reactive oxygen species generation in Candida albicans BWP17 assessed as increase in ROS level at 16 ug/ml incubated for 18 hrs by DCFH-DA staining based flow cytometric analysis (reference value: 7.2+/- 0.2%); format: functional; details: dose 16 µg/ml
[7] = test system: Candida albicans; test: Antifungal activity against Candida albicans assessed as inhibition of fungal growth measured after 48 hrs by M27-A3 based broth microdilution; format: functional
[8] = test system: Candida albicans; test: Antifungal activity against Candida albicans SC5314 assessed as inhibition of fungal growth at 0.0625 ug/ml incubated for 48 hrs by M27-A3 based microdilution method relative to control; format: functional
[9] = test system: Candida albicans; test: Antifungal activity against Candida albicans SC5314 assessed as inhibition of fungal growth at 4 ug/ml incubated for 48 hrs by M27-A3 based microdilution method relative to control; format: functional
[10] = test system: Candida albicans; test: Antifungal activity against Candida albicans SC5314 assessed as inhibition of fungal growth at 0.03125 ug/ml incubated for 18 hrs by M27-A3 based microdilution method relative to control; format: functional
[11] = test system: Candida albicans; test: Antifungal activity against Candida albicans SC5314 assessed as inhibition of fungal growth at 4 ug/ml incubated for 18 hrs by M27-A3 based microdilution method relative to control; format: functional
[12] = test system: Candida albicans; test: Antifungal activity against Candida albicans assessed as inhibition of fungal growth measured after 48 hrs in presence of exogenous ergosterol by M27-A3 based broth microdilution; format: functional
[13] = test system: Candida albicans; test: Antifungal activity against Candida albicans SC5314 assessed as inhibition of fungal growth at 2 ug/ml incubated for 18 hrs by M27-A3 based microdilution method relative to control; format: functional
[14] = test system: Candida albicans; test: Antifungal against Candida albicans SC5314 biofilm co-cultured with African green monkey Vero cells assessed as apoptotic-like chromatin aggregation of intact hyphae by measuring green fluorescence emission at 16 ug/ml incubated for 18 hrs by PI/acridine orange double staining based confocal laser scanning microscopic analysis; format: functional, organism-based; details: dose 16.0 µg/ml
[15] = test system: Candida albicans; test: Antifungal activity against Candida albicans SC5314 assessed as inhibition of fungal growth at 8 ug/ml incubated for 18 hrs by M27-A3 based microdilution method relative to control; format: functional
[16] = test system: Candida albicans; test: Antifungal activity against Candida albicans SC5314 assessed as inhibition of fungal growth at 0.0625 ug/ml incubated for 18 hrs by M27-A3 based microdilution method relative to control; format: functional
[17] = test system: Candida albicans; test: Antifungal activity against Candida albicans SC5314 assessed as inhibition of fungal growth at 1 ug/ml incubated for 48 hrs by M27-A3 based microdilution method relative to control; format: functional
[18] = Toxicity in Galleria mellonella larvae assessed as change in morphology at 16 ug/ml measured after 5 days by Hematoxylin and eosin staining; details: 120 h, dose 16 µg/ml, time 5 day
[19] = test system: Candida albicans; test: Induction of cell cycle arrest in Candida albicans SC5314 assessed as accumulation of cells in G0/G1 phase at 16 ug/ml incubated fro 18 hrs by PI staining based flow cytometry method; format: functional, organism-based; details: dose 16.0 µg/ml
[20] = test system: Candida albicans; test: Induction of reactive oxygen species generation in Candida albicans SC5314 assessed as increase in ROS level at 16 ug/ml incubated for 18 hrs by DCFH-DA staining based flow cytometric analysis (reference value: 0.77+/- 0.4%); format: functional; details: dose 16 µg/ml
[21] = test system: Candida albicans; test: Antifungal activity against Candida albicans SC5314 assessed as inhibition of fungal growth at 0.25 ug/ml incubated for 48 hrs by M27-A3 based microdilution method relative to control; format: functional
[22] = test system: Candida albicans; test: Antifungal activity against Candida albicans SC5314 assessed as inhibition of fungal growth at 0.5 ug/ml incubated for 18 hrs by M27-A3 based microdilution method relative to control; format: functional
[23] = Cytotoxicity against human TR146 cells at more than 64 ug/ml measured after 24 hrs by XTT assay; format: toxicity, cell-based; details: tr146, 24 h, dose 64 µg/ml
[24] = test system: Candida albicans; test: Induction of apoptosis in Candida albicans SC5314 protoplast cells assessed as necrotic cells at 16 ug/ml incubated for 18 hrs by PI/Annexin V staining based flow cytometry assay; format: functional; details: dose 16 µg/ml
[25] = test system: Candida albicans; test: Antifungal activity against Candida albicans SC5314 assessed as inhibition of fungal growth at 0.125 ug/ml incubated for 48 hrs by M27-A3 based microdilution method relative to control; format: functional
[26] = test system: Candida albicans; test: Antifungal activity against Candida albicans SC5314 assessed as inhibition of fungal growth at 1 ug/ml incubated for 18 hrs by M27-A3 based microdilution method relative to control; format: functional
[27] = test system: Candida albicans; test: Antifungal activity against Candida albicans SC5314 assessed as inhibition of fungal growth at 0.25 ug/ml incubated for 18 hrs by M27-A3 based microdilution method relative to control; format: functional
[28] = test system: Candida albicans; test: In vivo antifungal activity against Candida albicans SC5314 infected in Galleria mellonella larvae assessed as survival rate of larvae at 16 ug/ml administered 1 hr prior to infection measured within 5 days by Hematoxylin and eosin staining; format: functional; details: SC5314, 120 h, time 5 day
[29] = test system: Candida albicans; test: Fungicidal activity against Candida albicans SC5314 assessed as inhibition of fungal growth incubated for 48 hrs by M27-A3 based microdilution method; format: functional
[30] = test system: Candida albicans; test: Induction of apoptosis in Candida albicans SC5314 non-protoplast cells assessed as necrotic cells at 16 ug/ml incubated for 18 hrs by PI/Annexin V staining based flow cytometry assay; format: functional; details: dose 16 µg/ml
[31] = test system: Candida albicans; test: Induction of reactive oxygen species generation in Candida albicans cnb1delta/cnb1delta mutant assessed as increase in ROS level at 16 ug/ml incubated for 18 hrs by DCFH-DA staining based flow cytometric analysis (reference value: 4.7+/- 5.9%); format: functional; details: dose 16 µg/ml
[32] = test system: Candida albicans; test: Induction of reactive oxygen species generation in Candida albicans CNB1/cnb1delta mutant assessed as increase in ROS level at 16 ug/ml incubated for 18 hrs by DCFH-DA staining based flow cytometric analysis (reference value: 3.8+/- 4.2%); format: functional; details: dose 16 µg/ml
[33] = test system: Candida albicans; test: Antifungal activity against Candida albicans SC5314 assessed as inhibition of fungal growth at 0.03125 ug/ml incubated for 48 hrs by M27-A3 based microdilution method relative to control; format: functional
[34] = test system: Vero; test: Cytotoxicity against African green monkey Vero cells at > 64 ug/ml measured after 24 hrs by XTT assay; format: toxicity, cell-based; details: chlorocebus sabaeus, dose > 64 µg/ml
[35] = test system: Candida albicans; test: Antifungal activity against Candida albicans SC5314 assessed as inhibition of fungal growth at 16 ug/ml incubated for 18 hrs by M27-A3 based microdilution method relative to control; format: functional
[36] = test system: Candida albicans; test: In vivo antifungal activity against Candida albicans SC5314 infected in Galleria mellonella larvae assessed as prevention of candidiasis at 16 ug/ml administered 1 hr prior to infection measured after 5 days by Hematoxylin and eosin staining; format: functional, organism-based; details: dose 16.0 µg/ml, time 5.0 day
[37] = test system: Candida albicans; test: Antifungal activity against Candida albicans SC5314 assessed as inhibition of fungal growth at 2 ug/ml incubated for 48 hrs by M27-A3 based microdilution method relative to control; format: functional
[38] = test system: Candida albicans; test: In vivo antifungal activity against Candida albicans SC5314 infected in Galleria mellonella larvae assessed as survival rate of larvae at 16 ug/ml administered 1 hr post infection measured within 5 days by Hematoxylin and eosin staining; format: functional; details: SC5314, 120 h, time 5 day

O=C1CN=C(c2ccccc2Br)c2cc(F)ccc2N1CCCn1nnc(-c2ccc(Cl)cc2)n1
Activity [1]: 17%
inhibition at 0.5 µg/mL [2]: 99%
Activity [3]: Active
inhibition at 8 µg/mL [4]: 99%
inhibition at 0.125 µg/mL [5]: 98.9%
Activity [6]: 6.8%
MIC [7]: 64 µg/mL (≈ 116 µM)
inhibition at 0.0625 µg/mL [8]: 99.3%
inhibition at 4 µg/mL [9]: 99.2%
inhibition at 0.03125 µg/mL [10]: 100%
inhibition at 4 µg/mL [11]: 99.2%
MIC [12]: 2.56 µg/mL
inhibition at 2 µg/mL [13]: 99.8%
Activity [14]: Active
inhibition at 8 µg/mL [15]: 99%
inhibition at 0.0625 µg/mL [16]: 99.3%
inhibition at 1 µg/mL [17]: 99.1%
Activity [18]: Non-Toxic
Activity [19]: Active
Activity [20]: 19.6%
inhibition at 0.25 µg/mL [21]: 100%
inhibition at 0.5 µg/mL [22]: 99%
Activity [23]: Non-Toxic
Activity [24]: 81.23%
inhibition at 0.125 µg/mL [25]: 98.9%
inhibition at 1 µg/mL [26]: 99%
inhibition at 0.25 µg/mL [27]: 99.9%
survival at 16 µg/mL [28]: 95%
inhibition (INH) [29]: 99.24%
Activity [30]: 78.23%
Activity [31]: 3.35%
Activity [32]: 4.2%
inhibition at 0.03125 µg/mL [33]: 100%
Activity [34]: Toxic
inhibition at 16 µg/mL [35]: 99.5%
Activity [36]: Active
inhibition at 2 µg/mL [37]: 100%
survival at 16 µg/mL [38]: 100%
